Source: PubChem BioAssay (NCI)
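The compound was tested at five concentrations on cells cultured in 96-well plates, with a 48-hour exposure period. GI50 marks 50% less growth. The concentration for full growth arrest is given as TGI.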

Experiments:
Experiment in all cases: NCI-60 cell line screen, 48 h
786-0 renal = tested on: 786-0 renal
K-562 leukemia = tested on: K-562 leukemia
NCI-H23 lung = tested on: NCI-H23 lung
EKVX NSCLC = tested on: EKVX NSCLC
NCI/ADR-RES ovarian = tested on: NCI/ADR-RES ovarian
CCRF-CEM leukemia = tested on: CCRF-CEM leukemia
RPMI-8226 leukemia = tested on: RPMI-8226 leukemia
MALME-3M melanoma = tested on: MALME-3M melanoma
HOP-92 NSCLC = tested on: HOP-92 NSCLC
SK-MEL-28 melanoma = tested on: SK-MEL-28 melanoma
LOX IMVI melanoma = tested on: LOX IMVI melanoma
NCI-H226 lung = tested on: NCI-H226 lung
SK-OV-3 ovarian = tested on: SK-OV-3 ovarian
HCT-15 colon = tested on: HCT-15 colon
MDA-MB-231 breast = tested on: MDA-MB-231 breast
RXF 393 renal = tested on: RXF 393 renal
KM12 colon = tested on: KM12 colon
HT29 colon = tested on: HT29 colon
A498 renal = tested on: A498 renal
HOP-62 NSCLC = tested on: HOP-62 NSCLC
CAKI-1 renal = tested on: CAKI-1 renal
UACC-257 melanoma = tested on: UACC-257 melanoma
ACHN renal = tested on: ACHN renal
TK-10 renal = tested on: TK-10 renal
SF-295 CNS = tested on: SF-295 CNS
OVCAR-3 ovarian = tested on: OVCAR-3 ovarian
U251 CNS = tested on: U251 CNS
SK-MEL-5 melanoma = tested on: SK-MEL-5 melanoma
PC-3 prostate = tested on: PC-3 prostate
MCF7 breast = tested on: MCF7 breast
T-47D breast = tested on: T-47D breast
NCI-H460 lung = tested on: NCI-H460 lung
SW-620 colon = tested on: SW-620 colon
SNB-19 CNS = tested on: SNB-19 CNS
SNB-75 CNS = tested on: SNB-75 CNS
SN12C renal = tested on: SN12C renal
A549 NSCLC = tested on: A549 NSCLC
SF-268 CNS = tested on: SF-268 CNS
COLO 205 colon = tested on: COLO 205 colon
MOLT-4 leukemia = tested on: MOLT-4 leukemia
NCI-H522 lung = tested on: NCI-H522 lung
OVCAR-4 ovarian = tested on: OVCAR-4 ovarian
BT-549 breast = tested on: BT-549 breast
HS 578T breast = tested on: HS 578T breast
HCC-2998 colon = tested on: HCC-2998 colon
HCT-116 colon = tested on: HCT-116 colon
M14 melanoma = tested on: M14 melanoma
OVCAR-5 ovarian = tested on: OVCAR-5 ovarian
UO-31 renal = tested on: UO-31 renal
DU-145 prostate = tested on: DU-145 prostate
MDA-MB-435 = tested on: MDA-MB-435
OVCAR-8 ovarian = tested on: OVCAR-8 ovarian
UACC-62 melanoma = tested on: UACC-62 melanoma
SF-539 CNS = tested on: SF-539 CNS
SK-MEL-2 melanoma = tested on: SK-MEL-2 melanoma
IGROV1 ovarian = tested on: IGROV1 ovarian
HL-60(TB) leukemia = tested on: HL-60(TB) leukemia
SR leukemia = tested on: SR leukemia

O=C(Nc1ccccc1)Nc1cccc(Oc2nnc(Cl)c3ccccc23)c1
GI50 (786-0 renal): 3.6 µM
TGI (786-0 renal): 8.18 µM
GI50 (K-562 leukemia): 6.21 µM
TGI (K-562 leukemia): > 25 µM
GI50 (NCI-H23 lung): 3.72 µM
TGI (NCI-H23 lung): 9.44 µM
GI50 (EKVX NSCLC): 2.31 µM
TGI (EKVX NSCLC): 12.1 µM
GI50 (NCI/ADR-RES ovarian): 2.63 µM
TGI (NCI/ADR-RES ovarian): 6.39 µM
GI50 (CCRF-CEM leukemia): 4.44 µM
TGI (CCRF-CEM leukemia): > 25 µM
GI50 (RPMI-8226 leukemia): 4.45 µM
TGI (RPMI-8226 leukemia): 24.3 µM
GI50 (MALME-3M melanoma): 1.62 µM
TGI (MALME-3M melanoma): 5.93 µM
GI50 (HOP-92 NSCLC): 3.09 µM
TGI (HOP-92 NSCLC): 11.3 µM
GI50 (SK-MEL-28 melanoma): 3.57 µM
TGI (SK-MEL-28 melanoma): 12.7 µM
GI50 (LOX IMVI melanoma): 3.46 µM
TGI (LOX IMVI melanoma): 6.8 µM
GI50 (NCI-H226 lung): 1.95 µM
TGI (NCI-H226 lung): 9.25 µM
GI50 (SK-OV-3 ovarian): 1.46 µM
TGI (SK-OV-3 ovarian): 5.51 µM
GI50 (HCT-15 colon): 3.54 µM
TGI (HCT-15 colon): 12.9 µM
GI50 (MDA-MB-231 breast): 4.76 µM
TGI (MDA-MB-231 breast): 12.3 µM
GI50 (RXF 393 renal): 2.69 µM
TGI (RXF 393 renal): 6.24 µM
GI50 (KM12 colon): 5.51 µM
TGI (KM12 colon): > 25 µM
GI50 (HT29 colon): 5.26 µM
TGI (HT29 colon): > 25 µM
GI50 (A498 renal): 3.45 µM
TGI (A498 renal): 13.1 µM
GI50 (HOP-62 NSCLC): 2.52 µM
TGI (HOP-62 NSCLC): 6.54 µM
GI50 (CAKI-1 renal): 3.34 µM
TGI (CAKI-1 renal): 14.3 µM
GI50 (UACC-257 melanoma): 3.96 µM
TGI (UACC-257 melanoma): > 25 µM
GI50 (ACHN renal): 3.47 µM
TGI (ACHN renal): 18.7 µM
GI50 (TK-10 renal): 6.08 µM
TGI (TK-10 renal): 14.9 µM
GI50 (SF-295 CNS): 2.07 µM
TGI (SF-295 CNS): 5.63 µM
GI50 (OVCAR-3 ovarian): 2.64 µM
TGI (OVCAR-3 ovarian): 5.97 µM
GI50 (U251 CNS): 2.14 µM
TGI (U251 CNS): 5.2 µM
GI50 (SK-MEL-5 melanoma): 4.56 µM
TGI (SK-MEL-5 melanoma): 18.6 µM
GI50 (PC-3 prostate): 3.26 µM
TGI (PC-3 prostate): 10.6 µM
GI50 (MCF7 breast): 1.32 µM
TGI (MCF7 breast): 6.32 µM
GI50 (T-47D breast): 0.863 µM
TGI (T-47D breast): 10.8 µM
GI50 (NCI-H460 lung): 2.67 µM
TGI (NCI-H460 lung): 8.65 µM
GI50 (SW-620 colon): 8.41 µM
TGI (SW-620 colon): > 25 µM
GI50 (SNB-19 CNS): 1.67 µM
TGI (SNB-19 CNS): 8.46 µM
GI50 (SNB-75 CNS): 1.08 µM
TGI (SNB-75 CNS): 5.9 µM
GI50 (SN12C renal): 6.72 µM
TGI (SN12C renal): > 25 µM
GI50 (A549 NSCLC): 3.47 µM
TGI (A549 NSCLC): 18.4 µM
GI50 (SF-268 CNS): 2.89 µM
TGI (SF-268 CNS): 7.57 µM
GI50 (COLO 205 colon): 5.24 µM
TGI (COLO 205 colon): > 25 µM
GI50 (MOLT-4 leukemia): 2.6 µM
TGI (MOLT-4 leukemia): 11.4 µM
GI50 (NCI-H522 lung): 2.8 µM
TGI (NCI-H522 lung): 9.68 µM
GI50 (OVCAR-4 ovarian): 1.74 µM
TGI (OVCAR-4 ovarian): 12.2 µM
GI50 (BT-549 breast): 3.06 µM
TGI (BT-549 breast): 10.8 µM
GI50 (HS 578T breast): 2.12 µM
TGI (HS 578T breast): 10.4 µM
GI50 (HCC-2998 colon): 4.2 µM
TGI (HCC-2998 colon): 12.2 µM
GI50 (HCT-116 colon): 3.06 µM
TGI (HCT-116 colon): 9.77 µM
GI50 (M14 melanoma): 6.15 µM
TGI (M14 melanoma): > 25 µM
GI50 (OVCAR-5 ovarian): 5.61 µM
TGI (OVCAR-5 ovarian): 15.3 µM
GI50 (UO-31 renal): 3.98 µM
TGI (UO-31 renal): 19.6 µM
GI50 (DU-145 prostate): 3.01 µM
TGI (DU-145 prostate): 10.5 µM
GI50 (MDA-MB-435): 7.54 µM
TGI (MDA-MB-435): > 25 µM
GI50 (OVCAR-8 ovarian): 2.6 µM
TGI (OVCAR-8 ovarian): 6.53 µM
GI50 (UACC-62 melanoma): 6.84 µM
TGI (UACC-62 melanoma): > 25 µM
GI50 (SF-539 CNS): 2.81 µM
TGI (SF-539 CNS): 6.4 µM
GI50 (SK-MEL-2 melanoma): 3.9 µM
TGI (SK-MEL-2 melanoma): 13.2 µM
GI50 (IGROV1 ovarian): 3.32 µM
TGI (IGROV1 ovarian): 7.92 µM
GI50 (HL-60(TB) leukemia): 2.7 µM
TGI (HL-60(TB) leukemia): > 25 µM
GI50 (SR leukemia): 1.93 µM
TGI (SR leukemia): 8.26 µM
